Experimental data published in patent EP0003794B1, “Testosterone esters, process for their preparation and pharmaceutical compositions containing them” (priority 1978, dated 1979).

How the values were obtained:
[1] = Recent Progress in Hormone Research, Volume XIII, 389-396, Fig. 1 and Fig. 4; cited from earlier work
[2] = Testosterone plasma concentration (radioimmunoassay) and bioavailability after oral application in peanut oil, female dogs; i.m. testosterone as the reference; format: in vivo, Hunden
Protocol: Es wurde der zeitliche Verlauf der Testosteronkonzentration im Plasma von weiblichen Hunden von ca. 10 kg Gewicht nach oraler Applikation von 50 mg Testosteron-0-hexadecanoylglykolat (= 25 mg Testosteron) und von 40 mg Testosteronundecylat (= 25 mg Testosteron) im Vergleich zur […] Applikation von 25 mg Testosteron gemessen. Die Testosteronbestimmung im Plasma erfolgte mittels Radioimmunoassay. Zur Applikation wurden die geprüften Substanzen in Erdnußöl gelöst.
Die Bioverfügbarkeit wurde berechnet als Quotient der Flächen unter der Testosteronplasmaspiegelkurve (0-8 Stunden) nach oraler Applikation der geprüften Substanzen und der Fläche unter der Testosteronplasinaspiegelkurve nach intramuskulärer Applikation von Testosteron.

[3] = format: in vivo, Paviane; settings: 50 mg i.m. in 1 ml Rizinusöl/Benzylbenzoat (6:4), female baboons
Protocol: Die gleichmäßige, anhaltende Bereitstellung von Testosteron aus den erfindungsgemäßen Estern kann durch Bestimmung der Testosteronkonzentration im Plasma mittels Radioimmunoassay nachgewiesen werden.
Zu diesem Zweck erhielten zwei weibliche Paviane je 50 mg Testosteron-O-hexadecanoylglykolat in 1 ml Rizinusöl/Benzylbenzoat (6:4) intramuskular. Die Testosteron-Plasmaspiegel lagen zwischen dem 2. und 40. Tag im Bereich zwischen 15 und 25 ng/ml Plasma.

Row | SMILES | Wirkung (Verlauf) im Vergleich zu Testosteronönanthat [1] | further results
1 | CCCCCCCCCCC(=O)O[C@H]1CC[C@H]2[C@@H]3CCC4=CC(=O)CC[C@]4(C)[C@H]3CC[C@]12C [Testosteronundecylat] | etwas gleichmäßigere Wirkung als Testosteronönanthat | 
2 | C[C@]12CC[C@H]3[C@@H](CCC4=CC(=O)CC[C@@]43C)[C@@H]1CC[C@@H]2O [Testosteron (T), Testosteron] |  | AUC at 8 h ([2]; dog, plasma, oral, in Erdnußöl, dose ≙ 25 mg Testosteron, female dogs ca. 10 kg, testosterone by radioimmunoassay, read-out: Fläche unter Plasma-spiegel (0 – 8 h)): 10.6 ng·h/mL; Bioverfügbarkeit bezogen auf i.m. Applikation ([2]; in vivo): 1,29%
3 | CCCCCCCCCCCCCCCC(=O)OCC(=O)O[C@H]1CC[C@H]2[C@@H]3CCC4=CC(=O)CC[C@]4(C)[C@H]3CC[C@]12C [Testosteron-O-hexadecanoylglykolat] |  | Freisetzung des Testosterons aus dem Depot [3]: fast vollständig freigesetzt
4 | CCCCCCCCCC(=O)CC(=O)O[C@H]1CC[C@H]2[C@@H]3CCC4=CC(=O)CC[C@]4(C)[C@H]3CC[C@]12C [Testosteroncaprinoylacetat] | über 6 Wochen etwas gleichmäßigere aber insgesamt geringere Wirkung | 
5 | CCCCCCC(=O)O[C@H]1CC[C@H]2[C@@H]3CCC4=CC(=O)CC[C@]4(C)[C@H]3CC[C@]12C [Testosteronönanthat] | besonders hohe initiale Wirkung zeigt, die relativ rasch abfällt | 
